Values quoted from earlier work as cited in patent US4305927A, “Method for the management of intraocular pressure” (ALZA Corporation, priority 1980, dated 1981).

Test system: carbonic anhydrase

## CC(=O)Nc1nnc(S(N)(=O)=O)s1 [acetazolamide, 5-acetamido-1,3,4-thiadiazole-2-sulfonamide]
  action on carbonic anhydrase: enzyme inhibitor that acts on carbonic anhydrase
